From patent US10092575B2, “Substituted thiophene- and furan-fused azolopyrimidine-5-(6H)-one compounds” (DART NEUROSCIENCE (CAYMAN) LTD., priority 2012, dated 2018)

Biological target: human PDE1b enzyme (Homo sapiens (Human), UniProt Q01064)
Assay: PDE1b inhibitory assay (IMAP TR-FRET)
Details: not given

Row | SMILES | EC50 [nM]
1 | CCN(Cc1csc2c1c1ncnn1c(=O)n2Cc1ccc(OC)cc1)CC1CCOCC1 [Example 197, 9-((Ethyl((tetrahydro-2H-pyran-4-yl)methyl)amino)methyl)-6-(4-methoxybenzyl)thieno[3,2-e][1,2,4]triazolo[1,5-c]pyrimidin-5(6H)-one] | 100 to 1000
2 | COc1ccc(Cn2c(=O)n3ncnc3c3cc(CN4C[C@@H](C)O[C@@H](C)C4)sc32)c(F)c1F [Example 200, 6-(2,3-Difluoro-4-methoxybenzyl)-8-(((2R,6S)-2,6-dimethylmorpholino)methyl)thieno[3,2-e][1,2,4]triazolo[1,5-c]pyrimidin-5(6H)-one] | 1000 to 10000
3 | O=c1n(Cc2cccc(Cl)c2)c2sccc2c2ncnn12 [Example 2, 6-(3-Chlorobenzyl)thieno[3,2-e][1,2,4]triazolo[1,5-c]pyrimidin-5(6H)-one] | 1000 to 10000
4 | O=c1n(Cc2ccc(F)cc2)c2sc3c(c2c2ncnn12)CCOC3 [Example 92, 6-(4-Fluorobenzyl)-6,8,10,11-tetrahydro-5H-pyrano[4′,3′:4,5]thieno[3,2-e][1,2,4]triazolo[1,5-c]pyrimidin-5-one] | 1000 to 10000
5 | COc1ccc(Cn2c(=O)n3ncnc3c3cc(CN4CC(O)C4)sc32)c(F)c1 [Example 213, 6-(2-Fluoro-4-methoxybenzyl)-8-((3-hydroxyazetidin-1-yl)methyl)thieno[3,2-e][1,2,4]triazolo[1,5-c]pyrimidin-5(6H)-one] | 100 to 1000
6 | COc1ccc(Cn2c(=O)n3nccc3c3cc(CN4CCOCC4)sc32)cc1 [Example 82, 4-(4-Methoxybenzyl)-2-(morpholinomethyl)pyrazolo[1,5-c]thieno[3,2-e]pyrimidin-5(4H)-one] | 100 to 1000
7 | O=c1n(Cc2ccccc2Cl)c2sc3c(c2c2ncnn12)CCCC3 [Example 81, 6-(2-Chlorobenzyl)-8,9,10,11-tetrahydrobenzo[4,5]thieno[3,2-e][1,2,4]triazolo[1,5-c]pyrimidin-5(6H)-one] | 1000 to 10000
8 | COc1ccc(Cn2c(=O)n3ncnc3c3c(C)c(CN4C[C@@H](C)N[C@@H](C)C4)sc32)cc1 [Example 72, 8-(((3R,5S)-3,5-Dimethylpiperazin-1-yl)methyl)-6-(4-methoxybenzyl)-9-methylthieno[3,2-e][1,2,4]triazolo[1,5-c]pyrimidin-5(6H)-one] | 100 to 1000
9 | Cc1csc2c1c1ncnn1c(=O)n2Cc1ccccc1Cl [Example 10, 6-(2-Chlorobenzyl)-9-methylthieno[3,2-e][1,2,4]triazolo[1,5-c]pyrimidin-5(6H)-one] | 1000 to 10000
10 | COc1ccc(Cn2c(=O)n3ncnc3c3c(C)c(CO)sc32)cc1 [Example 77, 8-(Hydroxymethyl)-6-(4-methoxybenzyl)-9-methylthieno[3,2-e][1,2,4]triazolo[1,5-c]pyrimidin-5(6H)-one] | 100 to 1000
11 | Cc1csc2c1c1ncnn1c(=O)n2Cc1ccc(Cl)cc1 [Example 3, 6-(4-Chlorobenzyl)-9-methylthieno[3,2-e][1,2,4]triazolo[1,5-c]pyrimidin-5(6H)-one] | 100 to 1000
12 | COc1ccc(Cn2c(=O)n3ncnc3c3cc(CN(C)C)sc32)cc1 [Example 30, 8-((Dimethylamino)methyl)-6-(4-methoxybenzyl)thieno[3,2-e][1,2,4]triazolo[1,5-c]pyrimidin-5(6H)-one] | 100 to 1000
13 | COc1ccc(Cn2c(=O)n3ncnc3c3c4c(sc32)CN(CC2CCNCC2)CC4)cc1 [Example 182, 6-(4-Methoxybenzyl)-9-(piperidin-4-ylmethyl)-8,9,10,11-tetrahydropyrido[4′,3′:4,5]thieno[3,2-e][1,2,4]triazolo[1,5-c]pyrimidin-5(6H)-one] | 100 to 1000
14 | O=c1n(Cc2ccc(Cl)cc2)c2sc3c(c2c2ncnn12)CCN(CC(F)(F)F)C3 [Example 107, 6-(4-Chlorobenzyl)-9-(2,2,2-trifluoroethyl)-8,9,10,11-tetrahydropyrido[4′,3′:4,5]thieno[3,2-e][1,2,4]triazolo[1,5-c]pyrimidin-5 (6H)-one] | 100 to 1000
15 | Cc1ccc(Cn2c(=O)n3ncnc3c3c4c(sc32)COCC4)cc1 [Example 88, 6-(4-Methylbenzyl)-6,8,10,11-tetrahydro-5H-pyrano[4′,3′:4,5]thieno[3,2-e][1,2,4]triazolo[1,5-c]pyrimidin-5-one] | 100 to 1000
16 | COc1ccc(Cn2c(=O)n3ncnc3c3c(C)c(CN4CCCC4)sc32)cc1 [Example 43, 6-(4-Methoxybenzyl)-9-methyl-8-(pyrrolidin-1-ylmethyl)thieno[3,2-e][1,2,4]triazolo[1,5-c]pyrimidin-5(6H)-one] | 100 to 1000

Same assay, conditions: negative log of half-maximal molar inhibitory concentration; 200 nM FAM-cAMP; reported as ranges

Row | SMILES | PDE1b (pEC50)
17 | COc1ccc(Cn2c(=O)n3ncnc3c3c4c(sc32)NCCC4)cc1 [Example 220, 6-(4-Methoxybenzyl)-8,9,10,11-tetrahydropyrido[3′,2′:4,5]thieno[3,2-e][1,2,4]triazolo[1,5-c]pyrimidin-5(6H)-one] | >7
18 | COc1ccc(Cn2c(=O)n3ncnc3c3c(C)c(CN4CCN(S(C)(=O)=O)CC4)sc32)cc1 [Example 63, 6-(4-Methoxybenzyl)-9-methyl-8-((4-(methylsulfonyl)piperazin-1-yl)methyl)thieno[3,2-e][1,2,4]triazolo[1,5-c]pyrimidin-5(6H)-one] | >7
19 | COc1ccc(Cn2c(=O)n3ncnc3c3c4c(sc32)CNCC4(F)F)cc1 [Example 219, 11,11-Difluoro-6-(4-methoxybenzyl)-8,9,10,11-tetrahydropyrido[4′,3′:4,5]thieno[3,2-e][1,2,4]triazolo[1,5-c]pyrimidin-5 (6H)-one] | >7
20 | O=C(C1CC1)N1CCc2c(sc3c2c2ncnn2c(=O)n3Cc2ccc(Cl)cc2F)C1 [Example 164, 6-(4-Chloro-2-fluorobenzyl)-9-(cyclopropanecarbonyl)-8,9,10,11-tetrahydropyrido[4′,3′:4,5]thieno[3,2-e][1,2,4]triazolo[1,5-c]pyrimidin-5(6H)-one] | >7
21 | COc1ccc(Cn2c(=O)n3ncnc3c3c(C)c(CN4C[C@@H](C)O[C@@H](C)C4)sc32)cc1 [Example 55, 8-(((2S,6R)-2,6-Dimethylmorpholino)methyl)-6-(4-methoxybenzyl)-9-methylthieno[3,2-e][1,2,4]triazolo[1,5-c]pyrimidin-5(6H)-one] | >7
22 | COc1ccc(Cn2c(=O)n3ncnc3c3c4c(sc32)CN(C(=O)C2CCOC2)CC4)cc1 (stereo not drawn) [Example 170, 6-(4-Methoxybenzyl)-9-(tetrahydrofuran-3-carbonyl)-8,9,10,11-tetrahydropyrido[4′,3′:4,5]thieno[3,2-e][1,2,4]triazolo[1,5-c]pyrimidin-5(6H)-one] | >7
23 | O=c1n(Cc2ccc(-c3ccccc3)cc2)c2sccc2c2ncnn12 [Example 4, 6-([1,1′-Biphenyl]-4-ylmethyl)thieno[3,2-e][1,2,4]triazolo[1,5-c]pyrimidin-5(6H)-one] | <5
24 | COc1ccc(Cn2c(=O)n3ncnc3c3c4c(sc32)N(CC2CCCOC2)CCC4)cc1 (stereo not drawn) [Example 149, 6-(4-Methoxybenzyl)-8-((tetrahydro-2H-pyran-3-yl)methyl)-8,9,10,11-tetrahydropyrido[3′,2′:4,5]thieno[3,2-e][1,2,4]triazolo[1,5-c]pyrimidin-5(6H)-one] | >7
25 | COc1ccc(Cn2c(=O)n3ncnc3c3c4c(sc32)CN(CC(C)(C)C)CC4)cc1 [Example 115, 6-(4-Methoxybenzyl)-9-neopentyl-8,9,10,11-tetrahydropyrido[4′,3′:4,5]thieno[3,2-e][1,2,4]triazolo[1,5-c]pyrimidin-5(6H)-one] | >7
26 | COc1ccc(Cn2c(=O)n3ncnc3c3cc(CN4CCN(S(C)(=O)=O)CC4)sc32)cc1 [Example 35, 6-(4-Methoxybenzyl)-8-((4-(methylsulfonyl)piperazin-1-yl)methyl)thieno[3,2-e][1,2,4]triazolo[1,5-c]pyrimidin-5(6H)-one] | >7
27 | COc1ccc(Cn2c(=O)n3ncnc3c3cc(CN4CCCOCC4)sc32)cc1 [Example 29, 8-((1,4-Oxazepan-4-yl)methyl)-6-(4-methoxybenzyl)thieno[3,2-e][1,2,4]triazolo[1,5-c]pyrimidin-5(6H)-one] | >7
28 | CC(C)CCc1cc2c(s1)n(Cc1ccc(-c3ccccc3)cc1)c(=O)n1ncnc21 [Example 21, 6-([1,1′-Biphenyl]-4-ylmethyl)-8-isopentylthieno[3,2-e][1,2,4]triazolo[1,5-c]pyrimidin-5(6H)-one] | <5
29 | COc1ccc(Cn2c(=O)n3ncnc3c3c4c(sc32)CN(Cc2nccn2C)CCC4)cc1 [Example 144, 6-(4-Methoxybenzyl)-9-((1-methyl-1H-imidazol-2-yl)methyl)-6,8,9,10,11,12-hexahydro-5H-[1,2,4]triazolo[1″,5″:1′,6′]pyrimido[5′,4′:4,5]thieno[2,3-c]azepin-5-one] | >7
30 | COc1ccc(Cn2c(=O)n3ncnc3c3c(C)c(CNC4CC4)sc32)cc1 [Example 57, 8-((Cyclopropylamino)methyl)-6-(4-methoxybenzyl)-9-methylthieno[3,2-e][1,2,4]triazolo[1,5-c]pyrimidin-5(6H)-one] | >7
31 | COc1ccc(Cn2c(=O)n3ncnc3c3c(C)c(CN4Cc5ccccc5C4)sc32)cc1 [Example 56, 8-(Isoindolin-2-ylmethyl)-6-(4-methoxybenzyl)-9-methylthieno[3,2-e][1,2,4]triazolo[1,5-c]pyrimidin-5(6H)-one] | >7
32 | COc1ccc(Cn2c(=O)n3ncnc3c3c4c(sc32)CN(CC2CCCOC2)CC4(F)F)cc1 (stereo not drawn) [Example 136, 11,11-Difluoro-6-(4-methoxybenzyl)-9-((tetrahydro-2H-pyran-3-yl)methyl)-8,9,10,11-tetrahydropyrido[4′,3′:4,5]thieno[3,2-e][1,2,4]triazolo[1,5-c]pyrimidin-5(6H)-one] | >7
33 | O=c1n(Cc2ccc(Cl)cc2F)c2sc3c(c2c2ncnn12)CCN(Cc1ncccn1)C3 [Example 132, 6-(4-Chloro-2-fluorobenzyl)-9-(pyrimidin-2-ylmethyl)-8,9,10,11-tetrahydropyrido[4′,3′:4,5]thieno[3,2-e][1,2,4]triazolo[1,5-c]pyrimidin-5 (6H)-one] | >7
